Assay results published in article PMC4942781, “A sodium channel inhibitor ISTX-I with a novel structure provides a new hint at the evolutionary link between two toxin folds” (Scientific Reports, 2016).
Entries after “also recorded” stand apart in the source; their conditions may differ. Bridge positions count the residues as written; N and C are the ends. Ends that are not written are not given here.

Tests used:
[1] = system: sodium channels; assay: Selectivity and mode of action on sodium channels, summary statements; assay type: cell-based
Procedure: Rat DRG cells were acutely dissociated from adult Sprague-Dawley rats[30]. Briefly, adult rats of either sex with body weights of approximately 200 g were killed by decapitation. The dorsal root ganglia were isolated quickly from the spinal cord and then transferred into Dulbecco’s modified Eagle’s medium (DMEM) containing trypsin I (0.15 mg/mL) and collagenase II (0.3 mg/mL) for incubation with an oscillation frequency of 200 rpm at 37 °C for 20 min. The trypsin inhibitor II-S (1 mg/mL) was added to terminate the reaction. The isolated DRG cells were split into 35 mm culture dishes with DMEM solution containing 10% fetal bovine serum (FBS) and were incubated in a CO2 incubator (5% CO2, 95% air, 37 °C) for 1–4 h before the patch-clamp experiment. […]
(§1) DRG neurons with a large diameter (>[…]) and those with a relatively small diameter (<[…]) were chosen by measuring TTX-s and TTX-r currents, respectively. […] Potassium, calcium, and sodium currents were recorded in experimental cells using whole-cell patch-clamp recordings at room temperature, which were performed with an HEK EPC10 patch-clamp amplifier. […] Experimental data were acquired and analyzed using the programs patch master and Sigmaplot 9.0 (Sigma, USA). […]
(§2) Currents were recorded from experimental cells using whole-cell patch clamptechnique at room temperature (22–25 °C). […]

[2] = system: hNav1.4; assay: Whole-cell patch clamp, hNav1.4 in HEK293T cells; assay type: cell-based, human; details: 10 μM ISTX-I; 50 ms step to -10 mV from -80 mV
Procedure: HEK293T (human embryonic kidney) cells were grown in DMEM containing 10% heat-inactivated FBS at 37 °C in a 5% CO2 incubator. The cDNA genes encoding human (h)Nav1.1, (h)Nav1.2, (h)Nav1.3, (h)Nav1.4, (h)Nav1.5, (h)Nav1.6 and (h)Nav1.7 were transiently transfected into HEK293T cells for electrophysiology using Lipofectamine-2000 (Invitrogen) in serum-reduced medium (Opti-MEM, Invitrogen) following the manufacturer’s instructions. The auxiliary subunits hβ1 and enhanced green florescent protein plasmids were cotransfected into HEK293T cells to increase the current density and efficiently select cells with green florescent protein for whole-cell patch-clamp recordings. After 12 h, the HEK293T cells were used for electrophysiological analysis.
as §1, §2

LCSENGDCAADECCVDTVFEGDMVTRSCEKTTGNFTECPGLTPIA (disulfide 2-14, 8-28, 13-38) [ISTX-I]
shift of I-V and G-V curves upon inhibition of sodium channels (summary) [1]: without any shifts of the I-V and G-V curves | sodium channel subtype selectivity (in words) [1]: not other sodium channel subtypes; also recorded: specific activity on Nav1.7 subtypes; also recorded: subtype-selective inhibitor of Nav1.7 | effect on hNav1.4 [2]: no effect
